Measurements as given in publication PMC7917093, “Multiomics-based dissection of citrus flavonoid metabolism using a Citrus reticulata × Poncirus trifoliata population” (Horticulture Research, 2021).

Key:
[1] = tested on: T1, CitF3H (C. reticulata allele); test: LC-MS product assay, Michaelis-Menten fit; type: biochemical, Citrus reticulata; conditions: 0-1000 μM naringenin; 2-oxoglutarate 10 mM, FeSO4 0.25 mM, ascorbate 10 mM; Tris-HCl pH 8.5; 35 °C
T1 construct: gene F3H

[2] = tested on: T2, CitF3H (P. trifoliata allele); test: LC-MS product assay, Michaelis-Menten fit; type: biochemical, Citrus trifoliata; conditions: 0-1000 μM naringenin; 2-oxoglutarate 10 mM, FeSO4 0.25 mM, ascorbate 10 mM; Tris-HCl pH 8.5; 35 °C
T2 construct: gene F3H; natural allele with five amino acid differences and one indel versus C. reticulata

- Km [1]: 121 µM
- Km [2]: 7.61 µM
Structure (SMILES): O=C1C[C@@H](c2ccc(O)cc2)Oc2cc(O)cc(O)c21 [naringenin]
